Data from ChEMBL document CHEMBL3727356, “Therapeutic compounds and compositions” (2014).

Key:
Pyruvate kinase PKLR [1] = target: Pyruvate kinase PKLR (Homo sapiens, UniProt P30613, R510Q); test: Activation of PKR R510Q mutant (unknown origin) incubated for 60 mins in presence of ADP, PEP and NADH by Spectraax microplate reader based assay
Pyruvate kinase PKLR [2] = target: Pyruvate kinase PKLR (Homo sapiens, UniProt P30613, R532W); test: Activation of PKR R532W mutant (unknown origin) incubated for 60 mins in presence of ADP, PEP and NADH by Spectraax microplate reader based assay
Chain of Pyruvate kinase PKLR (Homo sapiens, UniProt P30613, R532W) (P30613 whole entry R532W): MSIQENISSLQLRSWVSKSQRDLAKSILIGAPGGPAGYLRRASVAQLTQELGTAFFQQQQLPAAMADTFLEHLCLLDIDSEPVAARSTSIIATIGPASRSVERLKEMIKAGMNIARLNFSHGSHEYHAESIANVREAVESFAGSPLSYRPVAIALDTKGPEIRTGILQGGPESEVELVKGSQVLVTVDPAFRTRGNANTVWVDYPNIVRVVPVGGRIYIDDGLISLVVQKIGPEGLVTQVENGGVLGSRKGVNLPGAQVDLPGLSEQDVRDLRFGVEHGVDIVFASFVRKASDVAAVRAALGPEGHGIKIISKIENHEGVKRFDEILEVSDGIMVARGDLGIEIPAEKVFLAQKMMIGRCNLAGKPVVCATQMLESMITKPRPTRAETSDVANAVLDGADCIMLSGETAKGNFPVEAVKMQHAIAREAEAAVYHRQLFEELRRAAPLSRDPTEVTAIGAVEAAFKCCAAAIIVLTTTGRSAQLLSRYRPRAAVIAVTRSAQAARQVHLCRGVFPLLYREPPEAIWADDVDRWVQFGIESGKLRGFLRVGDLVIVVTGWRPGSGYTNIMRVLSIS

Pyruvate kinase PKLR [3] = target: T1, Pyruvate kinase PKLR (Homo sapiens, UniProt P30613); test: Activation of wild type PKR (unknown origin) incubated for 60 mins in presence of ADP, PEP and NADH by Spectraax microplate reader based assay
T1 sequence (P30613 whole entry): as the sequence (P30613 whole entry R532W) above, with W532R counted along it

Pyruvate kinase PKLR [4] = target: T1, Pyruvate kinase PKLR; test: Activation of wild type PKR (unknown origin) by cell based assay

Chain of Pyruvate kinase PKLR (Homo sapiens, UniProt P30613, R510Q) (P30613 whole entry R510Q): as the sequence (P30613 whole entry R532W) above, with R510Q, W532R counted along it

Row | Structure (SMILES) | AC50 (Pyruvate kinase PKLR [1]) [nM] | AC50 (Pyruvate kinase PKLR [2]) [nM] | AC50 (Pyruvate kinase PKLR [3]) [nM] | AC50 (Pyruvate kinase PKLR [4]) [nM]
1 | O=C(c1ccc(NS(=O)(=O)c2ccc3nsnc3c2)cc1)N1CCC(O)(Cc2ccccc2)CC1 | ≤ 1000 | < 100 | < 100 | ≤ 1000
2 | Nc1nc2c(S(=O)(=O)Nc3ccc(C(=O)N4CCC(O)(c5ccccc5Cl)CC4)cc3)cccc2s1 | < 100 | < 100 | < 100 | < 100
3 | Nc1nc2c(S(=O)(=O)Nc3ccc(C(=O)N4CCC(O)(CCCC(F)(F)F)CC4)cc3)cccc2s1 | < 100 | < 100 | < 100 | < 100
4 | O=C(c1ccc(NS(=O)(=O)c2cccc3nccnc23)cc1)N1CCC(O)(CCC=C(F)F)CC1 | < 100 | < 100 | < 100 | < 100
5 | Nc1cnc2c(S(=O)(=O)Nc3ccc(C(=O)N4CCC(O)(c5cccc(F)c5F)CC4)cc3)cccc2n1 | < 100 | < 100 | < 100 | < 100
6 | Cc1nscc1CC1(O)CCN(C(=O)c2ccc(NS(=O)(=O)c3cccc4nccnc34)cc2)CC1 | < 100 | < 100 | < 100 | < 100
7 | Nc1cnc2c(S(=O)(=O)Nc3ccc(C(=O)N4CCC(O)(CCCC(F)(F)F)CC4)cc3)cccc2n1 | < 100 | < 100 | < 100 | < 100
8 | Nc1nc2c(S(=O)(=O)Nc3ccc(C(=O)N4CCC(O)(c5cccc(F)c5F)CC4)cc3)cccc2s1 | < 100 | < 100 | < 100 | < 100
9 | O=C(c1ccc(NS(=O)(=O)c2cccc3scnc23)cc1)N1CCC(O)(CCCC(F)F)CC1 | < 100 | < 100 | < 100 | < 100
10 | C=C(CC1(O)CCN(C(=O)c2ccc(NS(=O)(=O)c3cccc4scnc34)cc2)CC1)C(F)(F)F | < 100 | < 100 | < 100 | < 100
11 | Cc1cc(C(=O)N2CCC(O)(c3cccc(Cl)c3)CC2)ccc1NS(=O)(=O)c1cccc2cccnc12 | ≤ 1000 | < 100 | < 100 | < 100
12 | O=C(c1ccc(NS(=O)(=O)c2cccc3cccnc23)cc1)N1CCC(O)(CC2CC2)CC1 | < 100 | < 100 | < 100 | < 100
13 | O=C(c1ccc(NS(=O)(=O)c2cccc3cccnc23)cc1OC(F)F)N1CCC(O)(c2ccccc2Cl)CC1 | < 100 | < 100 | < 100 | < 100
14 | O=C(c1ccc(NS(=O)(=O)c2ccc(F)c3nccnc23)cc1)N1CCC(O)(c2cccc(F)c2F)CC1 | ≤ 1000 | < 100 | < 100 | ≥ 1010
15 | O=C(c1ccc(NS(=O)(=O)c2cccc3nccnc23)cc1)N1CCC(O)(CCCC(F)(F)F)CC1 | < 100 | < 100 | < 100 | < 100
16 | CNc1nc2c(S(=O)(=O)Nc3ccc(C(=O)N4CCC(O)(CC(C)C)CC4)cc3)cc(Cl)cc2s1 | < 100 | < 100 | < 100 | < 100
17 | CCCCC1(O)CCN(C(=O)c2ccc(NS(=O)(=O)c3cccc4cccnc34)cc2)CC1 | < 100 | < 100 | < 100 | < 100
18 | O=C(c1ccc(NS(=O)(=O)c2cccc3cccnc23)c(F)c1)N1CCC(O)(c2ccccc2Cl)CC1 | < 100 | < 100 | < 100 | < 100
19 | Nc1nc2c(S(=O)(=O)Nc3ccc(C(=O)N4CCC(O)(c5ccccc5Cl)CC4)cc3)cc(F)cc2s1 | < 100 | < 100 | < 100 | < 100

Next, values leading:

Row | AC50 (Pyruvate kinase PKLR [1]) [nM] | AC50 (Pyruvate kinase PKLR [2]) [nM] | AC50 (Pyruvate kinase PKLR [3]) [nM] | AC50 (Pyruvate kinase PKLR [4]) [nM] | Structure (SMILES)
20 | < 100 | < 100 | < 100 | < 100 | CC(C)CC1(O)CCN(C(=O)c2ccc(NS(=O)(=O)c3cccc4ncc(N)nc34)cc2)CC1
21 | < 100 | < 100 | < 100 | < 100 | Cc1cnc2cccc(S(=O)(=O)Nc3ccc(C(=O)N4CCC(O)(CC(C)C)CC4)cc3)c2n1
22 | < 100 | < 100 | < 100 | < 100 | CC(CC1(O)CCN(C(=O)c2ccc(NS(=O)(=O)c3cccc4sc(N)nc34)cc2)CC1)C(F)(F)F (stereo not drawn)
23 | < 100 | < 100 | < 100 | < 100 | CNc1nc2c(S(=O)(=O)Nc3ccc(C(=O)N4CCC(O)(CC(C)C)CC4)cc3)cccc2s1
24 | < 100 | < 100 | < 100 | < 100 | CC(C)CC1(O)CCN(C(=O)c2ccc(NS(=O)(=O)c3cccc4sc(N)nc34)cc2)CC1
25 | < 100 | < 100 | < 100 | < 100 | CC(C)CC1(O)CCN(C(=O)c2ccc(NS(=O)(=O)c3cccc4c(O)ncnc34)cc2)CC1
26 | < 100 | < 100 | < 100 | < 100 | CC(C)CC1(CO)CCN(C(=O)c2ccc(NS(=O)(=O)c3cccc4cccnc34)cc2)CC1
27 | < 100 | < 100 | < 100 | < 100 | CC(C)CC1(O)CCN(C(=O)c2ccc(NS(=O)(=O)c3cccc4cccnc34)cc2)CC1
28 | < 100 | < 100 | < 100 | < 100 | Cc1nscc1CC1(O)CCN(C(=O)c2ccc(NS(=O)(=O)c3cccc4scnc34)cc2)CC1
29 | < 100 | < 100 | < 100 | < 100 | CC(C)CCC1(O)CCN(C(=O)c2ccc(NS(=O)(=O)c3cccc4scnc34)cc2)CC1
30 | < 100 | < 100 | < 100 | < 100 | CC(C)CC1(O)CCN(C(=O)c2ccc(NS(=O)(=O)c3cc(F)cc4sc(N)nc34)cc2)CC1
31 | < 100 | < 100 | < 100 | < 100 | CC(C)CC1(O)CCN(C(=O)c2ccc(NS(=O)(=O)c3cccc4ccc(N)nc34)cc2)CC1
32 | < 100 | < 100 | < 100 | < 100 | CC(C)CC1(O)CCN(C(=O)c2ccc(NS(=O)(=O)c3cccc4nccnc34)cc2)CC1
33 | < 100 | < 100 | < 100 | < 100 | CC(C)(C)CC1(O)CCN(C(=O)c2ccc(NS(=O)(=O)c3ccc(F)c4cccnc34)cc2)CC1
34 | < 100 | < 100 | < 100 | < 100 | CC(CC1(O)CCN(C(=O)c2ccc(NS(=O)(=O)c3cccc4scnc34)cc2)CC1)C(F)(F)F (stereo not drawn)
35 | < 100 | < 100 | < 100 | < 100 | O=C(c1ccc(NS(=O)(=O)c2cccc3c(O)ncnc23)cc1)N1CCC(O)(CCCC(F)(F)F)CC1
36 | < 100 | < 100 | < 100 | < 100 | CC(C)CC1(O)CCN(C(=O)c2ccc(NS(=O)(=O)c3cccc4nc(N)cnc34)cc2)CC1
37 | < 100 | < 100 | < 100 | < 100 | CC(C)CC1(O)CCN(C(=O)c2ccc(NS(=O)(=O)c3cccc4scnc34)cc2)CC1
